Test results published in patent US6300368A, “Anilide derivatives and antiarrhythmic agents containing the same” (priority 1998, dated 2001).
Like-named read-outs stand apart in the source and are kept apart here.

Legend:
Purkinje's fiber = assay: Effects on ventricle: action potential of Purkinje's fiber from dog right ventricular free wall (Pharmacological Trial 2); type: cell-based; conditions: Canis lupus familiaris
Excerpt: Pharmacological Trial 2: Evaluation of Effects on Ventricle
Method: Purkinje's fiber specimen excised from the right ventricular free wall of dog, perfused with normal Tyrode solution and driven by electrical stimulation (fundamental frequency=1 Hz) was used. Standard glass microelectrode was used to record action potential.

ventricular function = conditions: cited from earlier work

CN(CCOc1ccc(NS(C)(=O)=O)cc1)CCc1ccc(NS(C)(=O)=O)cc1 [Dofetilide]
activation at 10 µM (Purkinje's fiber; read-out: extension of APD50 (duration to repolarize 50%)): 57%
activation at 10 µM (Purkinje's fiber; read-out: extension of APD75 (duration to repolarize 75%)): 45%
activation at 10 µM (Purkinje's fiber; read-out: extension of APD90 (duration to repolarize 90%)): 42%

O=C(NCC1CCCCN1)c1cc(OCC(F)(F)F)ccc1OCC(F)(F)F (centres unmarked) [Flecanide]
inhibition at 3 µM (Purkinje's fiber; 3 μM, read-out: suppression of Vmax (maximum rate of rise for action potential)): 30%

CC(=O)Nc1ccc(OCCNC2CCCCC2)cc1 [4'-[2-(cyclohexylamino)ethoxy] acetanilide]
action on ventricular function (ventricular function): act suppressively on ventricular function

CC(C)N(CCC(C(N)=O)(c1ccccc1)c1ccccn1)C(C)C (centres unmarked) [Disopyramido]
inhibition at 30 µM (Purkinje's fiber; read-out: suppression of Vmax (maximum rate of rise for action potential)): 33%

CC(=O)Nc1ccc(OCCNC(C)C)cc1.Cl [Reference 1, 4'-[2-(Isopropylamino)ethoxy]acetanilide Hydrochloride]
inhibition at 30 µM (Purkinje's fiber; 30 μM, read-out: suppression of Vmax (maximum rate of rise for action potential)): 15%
action on ventricular function (ventricular function): act suppressively on ventricular function
